Test results from patent US11028090B2 (Dong Wha Pharm. Co., Ltd., priority 2017, dated 2021).
Counter-ions that a name gives are not always drawn. Like-named read-outs stand apart in the source and are kept apart here.

Target: BRD4 (BD1+BD2) bromodomain (Homo sapiens (Human), UniProt O60885)
Assay: BRD4 binding inhibition (AlphaScreen, GST-BRD4 vs tetraacetylated histone H4 peptide)
Method: A mixture comprising 100 nM GST-BRD4 (BD1+BD2) and 100 nM biotinylated acetyl-histone H4 (Lys5,8,12,16) peptide was prepared in assay buffer (50 mM HEPES pH 7.4; 25 mM NaCl; 0.05% Tween 20; 0.1% bovine serum albumin (BSA); 10 mM dithiothreitol (DTT)). After adding 6 μl of the mixture to the diluent, 6 μl of the pre-mixed AlphaLISA Glutathione Acceptor Beads and AlphaScreen Streptavidin Donor Beads (PerkinElmer, 10 μg/ml in assay buffer, respectively) was added thereto. The samples were incubated in the dark at room temperature for 30 minutes (shaking at 300 rpm). Then, the signals were measured with PerkinElmer Envision HTS Multilabel Reader using an alpha screen protocol of PerkinElmer. Each plate contained the negative control in which biotinylated acetyl-histone H4 peptide and GST-BRD4 (BD1+BD2) were replaced by assay buffer. In the case of using the software GraphPad Prism for calculation, the negative control point was input as a low standard value. The positive control (probe molecule l-BET762 containing protein/peptide mixture) proceeded to pipetting.

[1] = GST-BRD4 (BD1+BD2) / biotinylated acetyl-histone H4 (Lys5,8,12,16) peptide, read-out: IC50, BRD4 binding inhibition
[2] = GST-BRD4 (BD1+BD2) vs biotinylated acetyl-histone H4 peptide, AlphaScreen, read-out: BRD4 IC50

Cc1nnc2c(NCCCCNC(=O)OC(C)(C)C)nc3ccc(Cl)cc3n12 [Example 54, [4-(8-chloro-1-methyl-[1,2,4]triazolo[4,3-a]quinoxaline-4-ylamino)-butyl]-carbamic acid-tert-butylester]
IC50 [1]: ≤ 50 nM | IC50 [2]: 50 nM

COCC(=O)NCCCCNc1nc2cc(OC)c(OC)cc2n2c(C)nnc12 [Example 80, N-[4-(7,8-dimethoxy-1-methyl-[1,2,4]triazolo[4,3-a]quinoxaline-4-ylamino)-butyl]-2-methoxy-acetamide]
IC50 [1]: ≤ 50 nM | IC50 [2]: 28 nM

COc1cc2nc(NCCCCNC(=O)[C@H](O)C(C)C)c3nnc(C)n3c2cc1OC [Example 82, N-[4-(7,8-dimethoxy-1-methyl-[1,2,4]triazolo[4,3-a]quinoxaline-4-ylamino)-butyl]-2-(R)-hydroxy-3-methyl-butyramide]
IC50 [1]: ≤ 50 nM | IC50 [2]: 12 nM

COc1cc2nc(NCCCCNC(=O)COC(C)=O)c3nnc(C)n3c2cc1OC [Example 87]
IC50 [1]: ≤ 50 nM | IC50 [2]: 27 nM

CCNC(=O)NCCCCNc1nc2cc(OC)c(OC)cc2n2c(C)nnc12 [Example 89, 1-[4-(7,8-dimethoxy-1-methyl-[1,2,4]triazolo[4,3-a]quinoxaline-4-ylamino)-butyl]-3-ethyl-urea]
IC50 [1]: ≤ 50 nM | IC50 [2]: 47 nM

COc1cc2nc(NCCCCNC(=O)N3CCOCC3)c3nnc(C)n3c2cc1OC [Example 92, morpholine-4-carboxylic acid-[4-(7,8-dimethoxy-1-methyl-[1,2,4]triazolo[4,3-a]quinoxaline-4-ylamino)-butyl]-amide]
IC50 [1]: ≤ 50 nM | IC50 [2]: 41 nM

COc1cc2nc(NCCCCNC(=O)Nc3ccccc3)c3nnc(C)n3c2cc1OC [Example 94]
IC50 [2]: 57 nM

COc1cc2nc(NCCCCNC(=O)c3ccc(Cl)cc3)c3nnc(C)n3c2cc1OC [Example 100, 4-chloro-N-[4-(7,8-dimethoxy-1-methyl-[1,2,4]triazolo[4,3-a]quinoxaline-4-ylamino)-butyl]-benzamide]
IC50 [2]: 69 nM

COc1cc2nc(NCCCCNC(=O)SC(C)C)c3nnc(C)n3c2cc1OC [Example 110, [4-(7,8-dimethoxy-1-methyl-[1,2,4]triazolo[4,3-a]quinoxaline-4-ylamino)-butyl]-thiocarbamic acid-S-isopropylester]
IC50 [1]: ≤ 50 nM | IC50 [2]: 35 nM

COc1cccc2c1nc(NCCCCN)c1nnc(C)n12 [Example 118, N^1-(6-methoxy-1-methyl-[1,2,4]triazolo[4,3-a]quinoxaline-4-yl)-butane-1,4-diamine dihydrochloride]
IC50 [2]: 54 nM

COc1cccc2c1nc(NCCCCNC(=O)C(C)(C)C)c1nnc(C)n12 [Example 119, N-[4-(6-methoxy-1-methyl-[1,2,4]triazolo[4,3-a]quinoxaline-4-ylamino)-butyl]-2,2-dimethyl-propionamide]
IC50 [2]: 79 nM

COc1ccc2nc(NCCCCNC(=O)OC(C)(C)C)c3nnc(C)n3c2c1 [Example 121, [4-(8-methoxy-1-methyl-[1,2,4]triazolo[4,3-a]quinoxaline-4-ylamino)-butyl]-carbamic acid-tert-butylester]
IC50 [2]: 55 nM

COc1ccc2nc(NCCCCNC(=O)C(C)(C)C)c3nnc(C)n3c2c1 [Example 123, N-[4-(8-methoxy-1-methyl-[1,2,4]triazolo[4,3-a]quinoxaline-4-ylamino)-butyl]-2,2-dimethyl-propionamide]
IC50 [1]: ≤ 50 nM | IC50 [2]: 42 nM

COc1ccc2nc(NCCCCNC(=O)[C@H](O)C(C)C)c3nnc(C)n3c2c1 [Example 125, 2-(R)-hydroxy-N-[4-(8-methoxy-1-methyl-[1,2,4]triazolo[4,3-a]quinoxaline-4-ylamino)-butyl]-3-methyl-butyramide]
IC50 [1]: ≤ 50 nM | IC50 [2]: 31 nM

COc1ccc2nc(NCCCCNC(=O)[C@@H](O)C(C)C)c3nnc(C)n3c2c1 [Example 126, 2-(S)-hydroxy-N-[4-(8-methoxy-1-methyl-[1,2,4]triazolo[4,3-a]quinoxaline-4-ylamino)-butyl]-3-methyl-butyramide]
IC50 [1]: ≤ 10 nM | IC50 [2]: 4 nM

COc1c(C)ccc2c1nc(NCCCCNC(=O)OC(C)(C)C)c1nnc(C)n12 [Example 130, {4-[6-methoxy-1,7-dimethyl-[1,2,4]triazolo[4,3-a]quinoxaline-4-ylamino]-butyl}-carbamic acid-tert-butylester]
IC50 [1]: ≤ 50 nM | IC50 [2]: 36 nM

COc1c(C)ccc2c1nc(NCCCCNC(=O)OCC(C)C)c1nnc(C)n12 [Example 134, [4-(6-methoxy-1,7-dimethyl-[1,2,4]triazolo[4,3-a]quinoxaline-4-ylamino)-butyl]-carbamic acid isobutylester]
IC50 [1]: ≤ 50 nM | IC50 [2]: 19 nM

COc1c(C)ccc2c1nc(NCCCCNC(=O)[C@H](O)C(C)C)c1nnc(C)n12 [Example 136, 2-(R)-hydroxy-N-[4-(6-methoxy-1,7-dimethyl-[1,2,4]triazolo[4,3-a]quinoxaline-4-ylamino)-butyl]-3-methyl-butyramide]
IC50 [1]: ≤ 50 nM | IC50 [2]: 58 nM

COc1c(C)ccc2c1nc(NCCCCNC(=O)c1ccccc1F)c1nnc(C)n12 [Example 139, 2-fluoro-N-[4-(6-methoxy-1,7-dimethyl-[1,2,4]triazolo[4,3-a]quinoxaline-4-ylamino)-butyl]-benzamide]
IC50 [1]: ≤ 50 nM | IC50 [2]: 40 nM

COc1cc(C(F)(F)F)cc2c1nc(NCCCCNC(=O)OC(C)C)c1nnc(C)n12 [Example 144, [4-(6-methoxy-1-methyl-8-trifluoromethyl-[1,2,4]triazolo[4,3-a]quinoxaline-4-ylamino)-butyl]-carbamic acid isopropylester]
IC50 [1]: ≤ 50 nM | IC50 [2]: 38 nM

COc1cc(C(F)(F)F)cc2c1nc(NCCCCNC(=O)CC(C)C)c1nnc(C)n12 [Example 145, N-[4-(6-methoxy-1-methyl-8-trifluoromethyl-[1,2,4]triazolo[4,3-a]quinoxaline-4-ylamino)-butyl]-3-methyl-butyramide]
IC50 [1]: ≤ 50 nM | IC50 [2]: 47 nM

COc1cc2c(cc1C)nc(NCCCCNC(=O)[C@H](O)C(C)C)c1nnc(C)n12 [Example 152, 2-(R)-hydroxy-N-[4-(8-methoxy-1,7-dimethyl-[1,2,4]triazolo[4,3-a]quinoxaline-4-ylamino)-butyl]-3-methyl-butyramide]
IC50 [2]: 96 nM

COc1cc2c(cc1C)nc(NCCCCNC(=O)c1ccccc1)c1nnc(C)n12 [Example 154, N-[4-(8-methoxy-1,7-dimethyl-[1,2,4]triazolo[4,3-a]quinoxaline-4-ylamino)-butyl]-benzamide]
IC50 [2]: 78 nM

COc1cc2c(cc1C)nc(NCCCCNC(=O)c1ccccc1F)c1nnc(C)n12 [Example 155, 2-fluoro-N-[4-(8-methoxy-1,7-dimethyl-[1,2,4]triazolo[4,3-a]quinoxaline-4-ylamino)-butyl]-benzamide]
IC50 [2]: 77 nM

Cc1nnc2c(NCCCCNC(=O)[C@H](O)C(C)C)nc3cc4c(cc3n12)OCCO4 [Example 182, 2-(R)-hydroxy-3-methyl-N-[4-(1-methyl-8,9-dihydro-7,10-dioxa-2,3,5,11b-tetraaza-cyclopenta[a]anthracene-4-ylamino)-butyl]-butyramide]
IC50 [1]: ≤ 50 nM | IC50 [2]: 22 nM

CC(=O)OCC(=O)NCCCCNc1nc2cc3c(cc2n2c(C)nnc12)OCCO3 [Example 184]
IC50 [1]: ≤ 50 nM | IC50 [2]: 30 nM
